Experimental data as given in patent US11339171B2, “MDM2 inhibitors” (Gan & Lee Pharmaceuticals, priority 2017, dated 2022).

Biological target: T1, MDM2 (Homo sapiens, UniProt Q00987)
T1 construct: made in house
Assay: Inhibition test of MDM2-P53 (GST-MDM2, Biotin-P53, Anti-GST-Tb, SA-XL665)
Format: binding
Conditions: for inhibitory effect on MDM2 compared with positive control compound HDM201: labels are Example numbers, the compounds with S-configuration are meant
Outline: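 Compounds, serially diluted 5-fold (twelve concentrations), were shaken for 90 min at 25° C with a mix of GST-MDM2 (4 nM final), Biotin-P53, anti-GST-Tb and SA-XL665. Buffer: 1×PBS, 0.1% BSA, 5 mM DTT, 1 mM AEBSF; signal read on a microplate reader.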

T1 sequence (Q00987 whole entry): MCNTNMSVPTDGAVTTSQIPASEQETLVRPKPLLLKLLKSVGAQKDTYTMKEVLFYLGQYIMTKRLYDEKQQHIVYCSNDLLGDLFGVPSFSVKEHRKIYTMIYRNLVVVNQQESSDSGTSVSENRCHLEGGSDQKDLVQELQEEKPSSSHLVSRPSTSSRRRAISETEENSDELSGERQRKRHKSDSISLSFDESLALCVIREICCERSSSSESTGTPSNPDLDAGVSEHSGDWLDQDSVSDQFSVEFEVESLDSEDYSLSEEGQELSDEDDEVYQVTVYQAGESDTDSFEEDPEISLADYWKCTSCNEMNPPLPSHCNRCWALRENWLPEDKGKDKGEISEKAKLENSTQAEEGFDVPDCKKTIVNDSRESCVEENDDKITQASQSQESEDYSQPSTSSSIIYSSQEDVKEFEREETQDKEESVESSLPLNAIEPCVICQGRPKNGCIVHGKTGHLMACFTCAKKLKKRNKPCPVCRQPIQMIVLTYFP

Row | Structure (SMILES) | IC50 [nM] | inhibitory effect on MDM2 compared with positive control compound HDM201
1 | COc1cc(OCCO)ccc1-c1nc2c(n1C(C)C)[C@]1(C(=O)Nc3cc(Cl)ccc31)N(c1cc(Cl)ccc1C)C2=O [Example R-148, (R)-6-chloro-5′-(5-chloro-2-methylphenyl)-2′-(4-(2-hydroxyethoxy)-2-methoxyphenyl)-3′-isopropyl-3′H-spiro[dihydroindole-3,4′-pyrrolo[3,4-d]imidazole]-2,6′(5′H)-dione] | 201 | 
2 | COc1cc(C(C)C)ccc1-c1nc2c(n1C(C)C)[C@]1(C(=O)Nc3cc(Cl)ccc31)N(c1cc(Cl)cnc1C)C2=O [Example R-89, (R)-6-chloro-5′-(5-chloro-2-methylpyridin-3-yl)-3′-isopropyl-2′-(4-isopropyl-2-methoxyphenyl)-3′H-spiro[dihydroindole-3,4′-pyrrolo[3,4-d]imidazole]-2,6′(5′H)-dione] | 569 | 
3 | COc1cc(OC(F)(F)F)ccc1-c1nc2c(n1C(C)C)[C@]1(C(=O)Nc3cc(Cl)ccc31)N(c1cccc(Cl)c1)C2=O [Example R-120, (R)-6-chloro-5′-(3-chlorophenyl)-3′-isopropyl-2′-(2-methoxy-4-(trifluoromethoxy)phenyl)-3′H-spiro[dihydroindole-3,4′-pyrrolo[3,4-d]imidazole]-2,6′(5′H)-dione] | 4780 | 
4 | CCOc1cc(OC)c(-c2nc3c(n2C(C)C)[C@]2(C(=O)Nc4cc(Cl)ccc42)N(c2cc(Cl)cnc2C)C3=O)cn1 [Example R-96, (R)-6-chloro-5′-(5-chloro-2-methylpyridin-3-yl)-2′-(6-ethoxy-4-methoxypyridin-3-yl)-3′-isopropyl-3′H-spiro[dihydroindole-3,4′-pyrrolo[3,4-d]imidazole]-2,6′(5′H)-dione] | 151 | 
5 | COc1nc(N(C)C)ncc1-c1nc2c(n1C(C)C)[C@]1(C(=O)Nc3cc(Cl)ccc31)N(c1cc(Cl)cnc1C)C2=O [Example R-135, (R)-6-chloro-5′-(5-chloro-2-methylpyridin-3-yl)-2′-(2-(dimethylamino)-4-methoxypyrimidin-5-yl)-3′-isopropyl-3′H-spiro[dihydroindole-3,4′-pyrrolo[3,4-d]imidazole]-2,6′(5′H)-dione] | 423 | 
6 | COc1nc(C(C)C)ccc1-c1nc2c(n1C(C)C)[C@]1(C(=O)Nc3cc(Cl)ccc31)N(c1cc(Cl)ccc1C)C2=O [Example R-149, (R)-6-chloro-5′-(5-chloro-2-methylphenyl)-3′-isopropyl-2′-(6-isopropyl-2-methoxypyridin-3-yl)-3′H-spiro[dihydroindole-3,4′-pyrrolo[3,4-d]imidazole]-2,6′(5′H)-dione] | 2280 | 
7 | CCN(C)c1ncc(-c2nc3c(n2C(C)C)[C@]2(C(=O)Nc4cc(Cl)ccc42)N(c2cc(Cl)ccc2C)C3=O)c(OC)n1 [Example R-119, (R)-6-chloro-5′-(5-chloro-2-methylphenyl)-2′-(2-(ethyl(methyl)amino)-4-methoxypyrimidin-5-yl)-3′-isopropyl-3′H-spiro[dihydroindole-3,4′-pyrrolo[3,4-d]imidazole]-2,6′(5′H)-dione] | 851 | 
8 | COc1cc(OCCF)ncc1-c1nc2c(n1C(C)C)C1(C(=O)Nc3cc(Cl)ccc31)N(c1cc(Cl)ccc1C)C2=O (stereo not drawn) [Example 163, 6-chloro-5′-(5-chloro-2-methylphenyl)-2′-(6-(2-fluoroethoxy)-4-methoxypyridin-3-yl)-3′-isopropyl-3′H-spiro[dihydroindole-3,4′-pyrrolo[3,4-d]imidazole]-2,6′(5′H)-dione] |  | better
9 | CCOc1ncc(-c2nc3c(n2C(C)C)[C@]2(C(=O)Nc4cc(Cl)ccc42)N(c2cc(Cl)cnc2C)C3=O)c(OC)n1 [Example R-134, (R)-6-chloro-5′-(5-chloro-2-methylpyridin-3-yl)-2′-(2-ethoxy-4-methoxypyrimidin-5-yl)-3′-isopropyl-3′H-spiro[dihydroindole-3,4′-pyrrolo[3,4-d]imidazole]-2,6′(5′H)-dione] | 322 | 
10 | COc1cc(C(=O)N(C)C)ccc1-c1nc2c(n1C(C)C)[C@]1(C(=O)Nc3cc(Cl)ccc31)N(c1cc(Cl)ccc1C)C2=O [Example R-68, (R)-4-(6-chloro-5′-(5-chloro-2-methylphenyl)-3′-isopropyl-2,6′-dioxo-5′,6′-dihydro-3′H-spiro[dihydroindole-3,4′-pyrrolo[3,4-d]imidazole]-2′-yl)-3-methoxy-N,N-dimethylbenzamide] | 657 | 
11 | COc1ncc(-c2nc3c(n2C2CCC2)[C@]2(C(=O)Nc4cc(Cl)ccc42)N(c2cc(Cl)ccc2C)C3=O)c(OC)n1 [Example R-41, (R)-6-chloro-5′-(5-chloro-2-methylphenyl)-3′-cyclobutyl-2′-(2,4-dimethoxypyrimidin-5-yl)-3′H-spiro[dihydroindole-3,4′-pyrrolo[3,4-d]imidazole]-2,6′(5′H)-dione] | 7320 | 
12 | COc1ccc(-c2nc3c(n2C(C)C)[C@]2(C(=O)Nc4cc(Cl)ccc42)N(c2cc(Cl)ccc2F)C3=O)c(OC)c1 [Example R-80, (R)-6-chloro-5′-(5-chloro-2-fluorophenyl)-2′-(2,4-dimethoxyphenyl)-3′-isopropyl-3′H-spiro[dihydroindole-3,4′-pyrrolo[3,4-d]imidazole]-2,6′(5′H)-dione] | 363 | 
13 | COc1cc(OCCF)ncc1-c1nc2c(n1C(C)C)C1(C(=O)Nc3cc(Cl)ccc31)N(c1cc(Cl)cnc1C)C2=O (stereo not drawn) [Example 173, 6-chloro-5′-(5-chloro-2-methylpyridin-3-yl)-2′-(6-(2-fluoroethoxy)-4-methoxypyridin-3-yl)-3′-isopropyl-3′H-spiro[dihydroindole-3,4′-pyrrolo[3,4-d]imidazole]-2,6′(5′H)-dione] |  | better
14 | COc1ccc(N2C(=O)c3nc(-c4ccccc4OC)n(C(C)C)c3C23C(=O)Nc2cc(Cl)ccc23)cc1Cl (stereo not drawn) [Example 63, 6-chloro-5′-(3-chloro-4-methoxyphenyl)-3′-isopropyl-2′-(2-methoxyphenyl)-3′H-spiro[dihydroindole-3,4′-pyrrolo[3,4-d]imidazole]-2,6′(5′H)-dione] |  | better
15 | COc1cc(C(F)(F)F)ncc1-c1nc2c(n1C(C)C)[C@]1(C(=O)Nc3cc(Cl)ccc31)N(c1cccc(Cl)c1)C2=O [Example R-142, (R)-6-chloro-5′-(3-chlorophenyl)-3′-isopropyl-2′-(4-methoxy-6-(trifluoromethyl)pyridin-3-yl)-3′H-spiro[dihydroindole-3,4′-pyrrolo[3,4-d]imidazole]-2,6′(5′H)-dione] | 137 | 
16 | COc1cc(F)c(-c2nc3c(n2C(C)C)[C@@]2(C(=O)Nc4cc(Cl)ccc42)N(c2cc(Cl)ccc2C)C3=O)c(OC)c1 [Example S-130, (S)-6-chloro-5′-(5-chloro-2-methylphenyl)-2′-(2-fluoro-4,6-dimethoxyphenyl)-3′-isopropyl-3′H-spiro[dihydroindole-3,4′-pyrrolo[3,4-d]imidazole]-2,6′(5′H)-dione] | 5.59 | 
17 | COc1nc(OC(C)C)ncc1-c1nc2c(n1C(C)C)[C@]1(C(=O)Nc3cc(Cl)ccc31)N(c1cc(Cl)cnc1C)C2=O [Example R-136, (R)-6-chloro-5′-(5-chloro-2-methylpyridin-3-yl)-2′-(2-isopropoxy-4-methoxypyrimidin-5-yl)-3′-isopropyl-3′H-spiro[dihydroindole-3,4′-pyrrolo[3,4-d]imidazole]-2,6′(5′H)-dione] | 1800 | 
18 | COc1cc(C#N)ccc1-c1nc2c(n1C(C)C)C1(C(=O)Nc3cc(Cl)ccc31)N(c1cccc(Cl)c1)C2=O (stereo not drawn) [Example 128] |  | better
19 | CCOc1ccc(-c2nc3c(n2C(C)C)[C@]2(C(=O)Nc4cc(Cl)ccc42)N(c2cc(Cl)ccc2C)C3=O)c(OC)c1 [Example R-88, (R)-6-chloro-5′-(5-chloro-2-methylphenyl)-2′-(4-ethoxy-2-methoxyphenyl)-3′-isopropyl-3′H-spiro[dihydroindole-3,4′-pyrrolo[3,4-d]imidazole]-2,6′(5′H)-dione] | 399 | 
20 | COc1cc(C(C)C)ncc1-c1nc2c(n1C(C)C)[C@]1(C(=O)Nc3cc(Cl)ccc31)N(c1cc(Cl)cnc1C)C2=O [Example R-166, (R)-6-chloro-5′-(5-chloro-2-methylpyridin-3-yl)-3′-isopropyl-2′-(6-isopropyl-4-methoxypyridin-3-yl)-3′H-spiro[dihydroindole-3,4′-pyrrolo[3,4-d]imidazole]-2,6′(5′H)-dione] | 957 | 
21 | COc1cc(C(C)(C)C)ccc1-c1nc2c(n1C(C)C)[C@]1(C(=O)Nc3cc(Cl)ccc31)N(c1cc(Cl)ccc1C)C2=O [Example R-101, (R)-2′-(4-(tert-butyl)-2-methoxyphenyl)-6-chloro-5′-(5-chloro-2-methylphenyl)-3′-isopropyl-3′H-spiro[dihydroindole-3,4′-pyrrolo[3,4-d]imidazole]-2,6′(5′H)-dione] | 2000 | 
22 | COc1cc(OCCO)ccc1-c1nc2c(n1C(C)C)C1(C(=O)Nc3cc(Cl)ccc31)N(c1cc(Cl)ccc1C)C2=O (stereo not drawn) [Example 148, 6-chloro-5′-(5-chloro-2-methylphenyl)-2′-(4-(2-hydroxyethoxy)-2-methoxyphenyl)-3′-isopropyl-3′H-spiro[dihydroindole-3,4′-pyrrolo[3,4-d]imidazole]-2,6′(5′H)-dione] |  | better
23 | COc1cc(C(F)(F)F)ncc1-c1nc2c(n1C(C)C)C1(C(=O)Nc3cc(Cl)ccc31)N(c1cccc(Cl)c1)C2=O (stereo not drawn) [Example 142, 6-chloro-5′-(3-chlorophenyl)-3′-isopropyl-2′-(4-methoxy-6-(trifluoromethyl)pyridin-3-yl)-3′H-spiro[dihydroindole-3,4′-pyrrolo[3,4-d]imidazole]-2,6′(5′H)-dione] |  | better
24 | CCN(CC)c1ccc(-c2nc3c(n2C(C)C)[C@]2(C(=O)Nc4cc(Cl)ccc42)N(c2cc(Cl)ccc2C)C3=O)c(OC)c1 [Example R-105, (R)-6-chloro-5′-(5-chloro-2-methylphenyl)-2′-(4-(diethylamino)-2-methoxyphenyl)-3′-isopropyl-3′H-spiro[dihydroindole-3,4′-pyrrolo[3,4-d]imidazole]-2,6′(5′H)-dione] | 343 | 
